# Data taken from patent US10179816B2, “Pharmaceutical compositions comprising an antibody which binds the human anti-Müllerian hormone receptor type II” (LABORATOIRE FRANCAIS DU FRACTIONNEMENT DES BIOTECHNOLOGIES, priority 2011, dated 2019).
# Values joined by “and” are separate entries in the source; they are usually repeats but may differ in a detail not shown here. Equal values may be shown once. “Also recorded” adds a separate entry of the source.
# What was measured:
# [1] = test system: Cov434-AMHRII Asc1a5 (cell line of human ovarian cancer transfected with cDNA AMHRII); assay: Anti-tumour activity of 3C23K alone or with carboplatin in Cov434-AMHRII Asc1a5 xenograft (tumour volume, T/C ratio, statistical analysis); assay type: in vivo, female Swiss nude mouse; conditions: for Anti-tumour activity (in words): carboplatin study, comparator as stated in the sentence
# Protocol: The 3C23K antibody was evaluated according to the following scheme: 2 times per week for 6 weeks, for a total of 12 injections at about 10 mg/kg/injection, said administration regimen being designated below as “Q3-4D12”. Another group of mice was treated with an irrelevant antibody LFB-R565, administered at about 10 mg/kg/injection, according to the regimen Q3-4D12.
# Carboplatin was evaluated, at a sub-optimum dose, i.e. about 60 mg/kg/injection, according to the following scheme: once a week, for 4 weeks, said administration regimen being designated below as “Q7D4”.
# Carboplatin was also evaluated in combination with the 3C23K antibody or with the irrelevant antibody LFB-R565. Carboplatin was administered at about 60 mg/kg/injection according to the Q7D4 regimen and the 3C23K antibody or the irrelevant antibody LFB-R565 at about 10 mg/kg/injection according to the regimen Q3-4D12.
# The mice were randomized on D11, when the volume of the tumours was between 50 and 158 mm^3, and the treatments began on D13 (9 mice per group).
# The tumours were usually measured twice weekly.
# The curves of the individual volume of the tumours were plotted.
# In one experiment with 9 mice per group, the curves and analyses were therefore stopped when fewer than 8 values per group had been obtained (8 mice alive).
# A Kruskal-Wallis test was also carried out.
# [2] = Body weight of the mice, carboplatin combination study; assay type: in vivo; conditions: for Individual body weight of the mice: one value per mouse
# Source text: Moreover, to identify whether the treatment has a toxic effect, the weight of the mice was monitored individually once a week.
# [3] = test system: Cov434-AMHRII Asc1a5 tumour cells;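 note: control mice received NaCl solution, survival endpoint was euthanasia once tumour volume hit 2000 mm^3 or on ethical grounds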
# Source text: A solution of NaCl was used as the control.
# (§1) The animals were sacrificed when the tumour volumes reached 2000 mm^3 or for ethical reasons. The curves of mean values and median values as well as the statistical analyses were stopped when 20% of the mice in the group were dead.
# [4] = test system: Cov434-AMHRII Asc1a5 tumour cells (a cell line of human ovarian cancer); assay: Anti-tumour activity of 3C23K alone or with paclitaxel in Cov434-AMHRII Asc1a5 xenograft (tumour volume, T/C ratio, statistical analysis); conditions: for Kruskal-Wallis Test: contrast vs control; for Individual tumour volume: individual mice;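 for all read-outs here: subcutaneous Cov434-AMHRII Asc1a5 xenografts in female Swiss nude mice, tumour volume from length×width×height/2 in mm^3, randomized D13, dosing from D14, 8 mice per group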
# Protocol: Female Swiss nude mice (Harlan Laboratories) were injected subcutaneously (s.c.) with 7.10^6 cells of Cov434-AMHRII Asc1a5 (cell line of human ovarian cancer transfected with cDNA AMHRII) in Matrigel (1:1 ratio) under a volume of 150 μL on day 0 (D0).
# The mice were randomized on D13, when the volume of the tumours was between 58 and 150 mm^3, and the treatments began on D14 (8 mice per group).
# The tumours were usually measured twice weekly. Tumour volume (TV) was calculated using the following formula, in which the length corresponds to the largest of the tumour diameters, the width corresponds to the smallest of the tumour diameters and the tumour height: TV (mm^3)=(length×width×height)/2.
# In addition, for each group, curves of tumour growth were plotted using the calculated mean tumour volumes or the median tumour volumes.
# as §1
# In one experiment with 8 mice per group, the curves and analyses were stopped when fewer than 7 values per group had been obtained (7 mice alive).
# The statistical differences between the different groups were analysed by ANOVA comparison using the Statgraphics centurion XV software.
# The ANOVA table breaks down the variance into two components: an inter-group component and an intra-group component. The ratio F is the ratio of the inter-group estimate to the intra-group estimate. When the P value of test F is greater than or equal to 0.05, there is no statistically significant difference between the mean values of the two groups, with a confidence level of 95%. P values less than 0.05 indicate a significant difference between the mean values of the two groups with a confidence level of 95%.
# A Kruskal-Wallis test was also carried out. When the P value is greater than or equal to 0.05, there is no statistically significant difference between the median of the two groups, with a confidence level of 95%. P values less than 0.05 indicate a significant difference between the medians of the two groups with a confidence level of 95%.
# The treatment is initiated on day 14 after injection.
# [5] = D11, randomization, before treatment
# [6] = Day 13, randomization, before treatment
structure (smiles),measurement,setting,value
"N.N.O=C([O-])C1(C(=O)[O-])CCC1.[Pt+2] [carboplatin, reference compound]",Individual tumour volume,[1]; [5],53 mm^3 and 142 mm^3 and 61 mm^3 and 102 mm^3 and 90 mm^3 and 72 mm^3 and 81 mm^3 and 70 mm^3 and 114 mm^3
same,Mean tumour volume,[1]; [5],87 mm^3
same,Median tumour volume,[1]; [5],81 mm^3
same,Individual tumour volume,[1]; D14,104 mm^3 and 210 mm^3 (2×) and 162 mm^3 and 126 mm^3 and 123 mm^3 and 75 mm^3 and 134 mm^3 and 168 mm^3
same,Mean tumour volume,[1]; D14,146 mm^3
same,Median tumour volume,[1]; D14,134 mm^3
same,Individual tumour volume,[1]; D18,98 mm^3 and 173 mm^3 and 112 mm^3 (2×) and 336 mm^3 and 248 mm^3 and 140 mm^3 and 90 mm^3 (2×)
same,Mean tumour volume,[1]; D18,155 mm^3
same,Median tumour volume,[1]; D18,112 mm^3
same,Individual tumour volume,[1]; D22,378 mm^3 and 126 mm^3 and 360 mm^3 and 324 mm^3 and 363 mm^3 and 270 mm^3 and 156 mm^3 and 198 mm^3 and 168 mm^3
same,Mean tumour volume,[1]; D22,260 mm^3
same,Median tumour volume,[1]; D22,270 mm^3
same,Individual tumour volume,[1]; D25,140 mm^3 and 240 mm^3 and 270 mm^3 and 616 mm^3 and 152 mm^3 and 358 mm^3 and 98 mm^3 and 243 mm^3 and 210 mm^3
same,Mean tumour volume,[1]; D25,258 mm^3
same,Median tumour volume,[1]; D25,240 mm^3
same,Individual tumour volume,[1]; D29,270 mm^3 and 200 mm^3 and 360 mm^3 (2×) and 768 mm^3 and 363 mm^3 and 168 mm^3 and 420 mm^3
same,Mean tumour volume,[1]; D29,344 mm^3
same,Median tumour volume,[1]; D29,360 mm^3
same,Individual tumour volume,[1]; D32,351 mm^3 and 243 mm^3 and 578 mm^3 and 864 mm^3 and 653 mm^3 and 504 mm^3 and 220 mm^3 and 462 mm^3
same,Mean tumour volume,[1]; D32,461 mm^3
same,Median tumour volume,[1]; D32,462 mm^3
same,Individual tumour volume,[1]; D36,630 mm^3 and 424 mm^3 and 1148 mm^3 and 1610 mm^3 and 893 mm^3 and 462 mm^3 and 308 mm^3 and 774 mm^3
same,Mean tumour volume,[1]; D36,760 mm^3
same,Median tumour volume,[1]; D36,630 mm^3
same,Individual tumour volume,[1]; D39,660 mm^3 and 484 mm^3 and 1134 mm^3 and 1495 mm^3 and 1488 mm^3 and 447 mm^3 and 347 mm^3 and 910 mm^3 and 423 mm^3
same,Mean tumour volume,[1]; D39,821 mm^3
same,Median tumour volume,[1]; D39,660 mm^3
same,Individual tumour volume,[1]; D43,864 mm^3 and 592 mm^3 and 1881 mm^3 and 2112 mm^3 and 2038 mm^3 and 882 mm^3 and 438 mm^3 and 1105 mm^3 and 672 mm^3
same,Mean tumour volume,[1]; D43,1176 mm^3
same,Median tumour volume,[1]; D43,882 mm^3
same,Individual tumour volume,[1]; D46,1071 mm^3 and 501 mm^3 and 2205 mm^3 and 810 mm^3 and 378 mm^3 and 1450 mm^3 and 878 mm^3
same,Individual tumour volume,[1]; D49,1568 mm^3 and 819 mm^3 and 1125 mm^3 and 480 mm^3 and 1650 mm^3 and 980 mm^3
same,Anti-tumour activity (in words),[1],anti-tumour effect; also recorded: exerts anti-tumour activity
same,Anti-tumour activity (in words),[1]; listed as Carboplatin,significant anti-tumour activity
same,T/C ratio,"[1]; relative to Control group, D11 (before treatment)",89%
same,T/C ratio,"[1]; relative to Control group, D14",82%
same,T/C ratio,"[1]; relative to Control group, D18",52%
same,T/C ratio,"[1]; relative to Control group, D22",69%
same,T/C ratio,"[1]; relative to Control group, D25",54%
same,T/C ratio,"[1]; relative to Control group, D29",56%
same,T/C ratio,"[1]; relative to Control group, D32",45%
same,T/C ratio,"[1]; relative to Control group, D36",40%
same,T/C ratio,"[1]; relative to LFB-R565 group, D11 (before treatment)",100%
same,T/C ratio,"[1]; relative to LFB-R565 group, D14",87%
same,T/C ratio,"[1]; relative to LFB-R565 group, D18",65%
same,T/C ratio,"[1]; relative to LFB-R565 group, D22",100%
same,T/C ratio,"[1]; relative to LFB-R565 group, D25",59%
same,T/C ratio,"[1]; relative to LFB-R565 group, D29",52%
same,T/C ratio,"[1]; relative to LFB-R565 group, D32",67%
same,T/C ratio,"[1]; relative to LFB-R565 group, D36",35%
same,Individual body weight of the mice,"[2]; D11 (Sep. 19, 2011)",22.3 (2×) and 25.8 and 23.0 and 27.1 and 23.3 and 24.5 and 22.7 and 20.4
same,Individual body weight of the mice,"[2]; D18 (Sep. 26, 2011), in g (unit assumed)",22.2 and 24.6 and 22.6 and 26.1 and 24.4 and 25.4 and 23.6 and 20.3 and 22.0
same,Individual body weight of the mice,"[2]; D25 (Oct. 3, 2011)",27.6 and 28.3 and 25.6 (2×) and 32.7 and 27.0 and 29.4 and 24.2 and 26.0
same,Individual body weight of the mice,"[2]; D32 (Oct. 10, 2011)",23.7 and 24.5 and 23.6 (2×) and 28.0 and 23.1 (2×) and 21.1 and 20.2
same,Individual body weight of the mice,"[2]; D39 (Oct. 17, 2011), in g (unit assumed)",24.3 and 23.9 and 25.1 and 27.2 and 25.4 and 22.4 and 20.0 and 21.0 and 23.3
same,Individual body weight of the mice,"[2]; D46 (Oct. 24, 2011)",25.4 and 25.7 (2×) and 26.4 and 21.7 and 21.0 and 25.0
same,Mean body weight of the mice,[2]; Day 11 (before treatment),23.5 g
same,Mean body weight of the mice,[2]; Day 18,23.5 g
same,Mean body weight of the mice,[2]; Day 25,27.4 g
same,Mean body weight of the mice,[2]; Day 32,23.4 g
same,Mean body weight of the mice,[2]; Day 39,23.6 g
same,Effect on body weight / toxic effect (in words),[2]; carboplatin study,not regarded as a toxic effect
same,Decrease in body weight,"[2]; on D32 in comparison with D25, after the third injection of carboplatin",about 15%
"CC(=O)O[C@H]1C(=O)[C@@]2(C)[C@H]([C@H](OC(=O)c3ccccc3)[C@]3(O)C[C@H](OC(=O)[C@H](O)[C@@H](NC(=O)c4ccccc4)c4ccccc4)C(C)=C1C3(C)C)[C@]1(OC(C)=O)CO[C@@H]1C[C@@H]2O [paclitaxel, reference compound]",Survival parameter: logrank test chi-squared,[3]; contrast vs control,0.04
same,Survival parameter Mean,[3]; group of 8 mice,45 days
same,Survival parameter Median,[3]; group of 8 mice,45 days
same,survival parameter,"[3]; individual mice, experiment ended on day 83",34 Days and 41 Days (2×) and 45 Days (2×) and 51 Days (2×) and 55 Days
same,Statistical analysis based on the survival parameter (in words),"[3]; mouse, in vivo",does not have an activity that is significantly different from that of the control
same,Kruskal-Wallis Test,[4]; D13,0.04
same,Kruskal-Wallis Test,[4]; D20,0.47
same,Statistical analysis of tumour volume (in words),[4]; D20 to D41,does not have an activity that is significantly different from that of the control
same,Kruskal-Wallis Test,[4]; D24,0.28
same,Kruskal-Wallis Test,[4]; D27,1.10
same,Kruskal-Wallis Test,[4]; D31,0.89
same,Kruskal-Wallis Test,[4]; D35,0.10
same,Kruskal-Wallis Test,[4]; D41,0.20
same,Mean tumour volume,[4]; [6],97 mm^3
same,Median tumour volume,[4]; [6],90 mm^3
same,Individual tumour volume,[4]; Day 13,126 mm3 and 117 mm3 and 98 mm3 and 83 mm3 (2×) and 66 mm3 and 144 mm3 and 58 mm3
same,Mean tumour volume,[4]; Day 20,226 mm^3
same,Median tumour volume,[4]; Day 20,228 mm^3
same,Individual tumour volume,[4]; Day 20,424 mm3 and 243 mm3 and 240 mm3 and 280 mm3 and 170 mm3 and 126 mm3 and 217 mm3 and 105 mm3
same,Mean tumour volume,[4]; Day 24,313 mm^3
same,Median tumour volume,[4]; Day 24,270 mm^3
same,Individual tumour volume,[4]; Day 24,756 mm3 and 257 mm3 and 356 mm3 and 284 mm3 and 380 mm3 and 180 mm3 (2×) and 110 mm3
same,Median tumour volume,[4]; Day 27,336 mm^3
same,Individual tumour volume,[4]; Day 27,896 mm3 and 325 mm3 and 386 mm3 and 255 mm3 and 560 mm3 and 347 mm3 and 270 mm3 and 198 mm3
same,Mean tumour volume,[4]; Day 31,589 mm^3
same,Median tumour volume,[4]; Day 31,415 mm^3
same,Individual tumour volume,[4]; Day 31,1530 mm3 and 420 mm3 and 673 mm3 and 410 mm3 (2×) and 720 mm3 and 358 mm3 and 192 mm3
same,Mean tumour volume,[4]; Day 35,1176 mm^3
same,Median tumour volume,[4]; Day 35,986 mm^3
same,Individual tumour volume,[4]; Day 35,2706 mm3 and 699 mm3 and 1200 mm3 and 1008 mm3 and 1653 mm3 and 965 mm3 and 823 mm3 and 351 mm3
same,Mean tumour volume,[4]; Day 41,1390 mm^3
same,Median tumour volume,[4]; Day 41,1309 mm^3
same,Individual tumour volume,[4]; Day 41,1064 mm3 and 2380 mm3 and 1309 mm3 and 1389 mm3 and 2269 mm3 and 884 mm3 and 437 mm3
same,Individual tumour volume,[4]; Day 45,1632 mm3 and 2040 mm3 and 2112 mm3 and 1197 mm3 and 798 mm3
same,Individual tumour volume,[4]; Day 48,1536 mm3 and 1323 mm3 and 1232 mm3
same,Individual tumour volume,[4]; Day 51,2166 mm3 and 2112 mm3 and 1348 mm3
same,Individual tumour volume,[4]; Day 55,2132 mm3
same,Anti-tumour activity (in words),[4]; paclitaxel study,modest inhibition of tumour growth
